Here are results for 5 molecules from patent US9512114B2, “Substituted aminopyrimidine compounds and methods of use” (Calitor Sciences, LLC, priority 2013, dated 2016).

In one series the target is PI3K (p110δ/p85α) (h) (Homo sapiens (Human), UniProt O00329). The series is described as follows: PI3K (p110δ/p85α) (h) non-radioactive HTRF kinase assay. It counts as biochemical. The note with it: performed at Millipore UK Ltd. The method, boiled down:
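Human p110δ/p85α incubated with 10 μM phosphatidylinositol-4,5-bisphosphate, reaction started with MgATP (concentration as required), 30 min at room temperature. Stopped with EDTA plus biotinylated PIP3; detection by HTRF with Eu-anti-GST antibody, GST-GRP1 PH domain and streptavidin-APC, signal = 10000×(Em665/Em620). Yields IC50 and/or Ki.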
A general note: In TR-FRET formats the signal depends on donor and acceptor labels being close together.

The target in another series is PI3K (p120γ) (h) (Homo sapiens (Human), UniProt P48736). The series is described as follows: PI3K (p120γ) (h) non-radioactive HTRF kinase assay. It counts as biochemical. The conditions noted are these: performed at Millipore UK Ltd. Here is the method:
The above assay procedure can be used to determine the IC50 for inhibition and/or the inhibition constant, Ki.
PI3K (p120γ) (h) [Non-Radioactive Assay]
PI3K (p120γ) (h) is incubated in assay buffer containing 10 μM phosphatidylinositol-4, 5-bisphosphate and MgATP (concentration as required). The reaction is initiated by the addition of the MgATP mix. After incubation for 30 minutes at room temperature, the reaction is stopped by the addition of stop solution containing EDTA and biotinylated phosphatidylinositol-3,4,5-trisphosphate. Finally, detection buffer is added, which contains europium-labelled anti-GST monoclonal antibody, GST-tagged GRP1 PH domain and streptavidin-allophycocyanin. The plate is then read in timeresolved fluorescence mode and the homogenous time-resolved fluorescence (HTRF) signal is determined according to the formula HTRF=10000×(Em665 nm/Em620 nm).
The kinase assays described herein were performed at Millipore UK Ltd, Dundee Technology Park, Dundee DD2 1SW, UK.

Series [1] is described as follows: Pharmacokinetic profiles in monkeys. It counts as in vivo. The conditions noted are these: Monkey; for Cl/F / AUC(0-t) / half-life / Vd: iv dosing 1 mg/kg; for F: oral vs iv (iv 1 mg/kg; p.o. generally 10 mg/kg); for AUC(0-t) / half-life / Vd: plasma; for Vd: read-out: Vss. Here is the method: (§1) The compounds disclosed herein are assessed in pharmacokinetic studies in mice, rats, dogs or monkeys. The compounds are administered as a water solution, 2% HPMC+1% TWEEN®80 in water solution, 5% DMSO+5% solutol in saline, 4% MC suspension or capsule. For the intravenous administration, the animals are generally given at 1 or 2 mg/kg dose. For the oral (p.o.) dosing, mice and rats are generally given 5 or 10 mg/kg dose, and dogs and monkeys are generally given 10 mg/kg dose. The blood samples (0.3 mL) are drawn at 0.25, 0.5, 1.0, 2.0, 3.0, 4.0, 6.0, 8.0, 12 and 24 h time points or 0.083, 0.25, 0.5, 1.0, 2.0, 4.0, 6.0, 8.0 and 24 h time points and centrifuged at 3,000 or 4000 rpm for 2 to 10 min. The plasma solutions are collected, stored at −20° C. or −70° C. until analyzed by LC/MS/MS as described above.

The nature of series [2]: Pharmacokinetic profiles in dogs. The class given is in vivo. The conditions noted are these: Dog; for clearance / AUC(0-t) / half-life / Vd: iv dosing 1 mg/kg; for F: oral vs iv (iv 1 mg/kg; p.o. generally 10 mg/kg); for AUC(0-t) / half-life / Vd: plasma; for Vd: read-out: Vss. Here is the method:
as §1

Chain of PI3K (p110δ/p85α) (h) (O00329 whole entry, the tested form may be a part): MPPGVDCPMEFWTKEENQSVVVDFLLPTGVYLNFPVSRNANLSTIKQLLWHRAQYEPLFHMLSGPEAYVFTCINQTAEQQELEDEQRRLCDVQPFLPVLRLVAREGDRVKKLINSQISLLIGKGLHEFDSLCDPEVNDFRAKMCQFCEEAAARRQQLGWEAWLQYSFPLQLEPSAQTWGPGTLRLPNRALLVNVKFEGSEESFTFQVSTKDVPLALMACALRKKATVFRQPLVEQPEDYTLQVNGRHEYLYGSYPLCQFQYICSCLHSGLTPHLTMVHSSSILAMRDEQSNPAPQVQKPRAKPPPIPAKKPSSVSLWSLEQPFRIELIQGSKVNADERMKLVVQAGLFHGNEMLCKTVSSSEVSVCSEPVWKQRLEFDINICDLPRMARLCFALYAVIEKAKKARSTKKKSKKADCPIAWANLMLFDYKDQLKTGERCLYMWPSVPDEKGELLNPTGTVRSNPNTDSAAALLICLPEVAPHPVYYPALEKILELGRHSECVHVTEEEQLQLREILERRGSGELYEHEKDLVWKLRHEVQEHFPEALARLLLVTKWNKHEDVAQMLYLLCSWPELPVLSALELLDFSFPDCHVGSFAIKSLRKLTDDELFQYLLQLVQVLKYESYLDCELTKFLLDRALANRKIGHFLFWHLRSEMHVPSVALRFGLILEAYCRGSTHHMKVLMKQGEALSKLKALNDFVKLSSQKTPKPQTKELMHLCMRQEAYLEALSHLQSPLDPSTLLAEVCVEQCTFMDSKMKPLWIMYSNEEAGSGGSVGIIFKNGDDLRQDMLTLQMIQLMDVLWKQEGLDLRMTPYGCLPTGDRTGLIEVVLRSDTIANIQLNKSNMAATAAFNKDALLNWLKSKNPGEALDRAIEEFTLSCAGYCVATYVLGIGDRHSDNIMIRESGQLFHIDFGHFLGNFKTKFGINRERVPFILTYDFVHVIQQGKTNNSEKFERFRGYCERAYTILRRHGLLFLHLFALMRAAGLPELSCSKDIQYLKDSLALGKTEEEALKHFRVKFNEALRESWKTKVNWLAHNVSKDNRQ
Chain of PI3K (p110δ/p85α) (h) (P27986 whole entry partner, the tested form may be a part): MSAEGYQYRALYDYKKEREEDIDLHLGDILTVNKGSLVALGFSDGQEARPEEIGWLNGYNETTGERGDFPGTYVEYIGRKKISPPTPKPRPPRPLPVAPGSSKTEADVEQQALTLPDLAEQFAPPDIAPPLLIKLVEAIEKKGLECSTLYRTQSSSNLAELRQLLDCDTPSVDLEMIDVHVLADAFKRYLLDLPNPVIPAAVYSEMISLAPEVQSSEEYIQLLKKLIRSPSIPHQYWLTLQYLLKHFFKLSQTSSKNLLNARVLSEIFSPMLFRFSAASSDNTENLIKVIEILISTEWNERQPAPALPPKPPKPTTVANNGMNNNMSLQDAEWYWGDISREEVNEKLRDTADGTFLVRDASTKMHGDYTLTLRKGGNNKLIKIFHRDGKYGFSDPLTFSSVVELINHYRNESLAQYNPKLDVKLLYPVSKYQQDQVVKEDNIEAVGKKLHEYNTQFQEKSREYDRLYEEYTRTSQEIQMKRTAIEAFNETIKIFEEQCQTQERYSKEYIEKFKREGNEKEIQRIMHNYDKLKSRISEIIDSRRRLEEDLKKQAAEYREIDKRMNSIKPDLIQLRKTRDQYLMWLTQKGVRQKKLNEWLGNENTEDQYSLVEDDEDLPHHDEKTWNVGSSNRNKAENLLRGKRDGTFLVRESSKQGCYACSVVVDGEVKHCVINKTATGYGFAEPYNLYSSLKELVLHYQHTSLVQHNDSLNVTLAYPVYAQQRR
Chain of PI3K (p120γ) (h) (P48736 whole entry): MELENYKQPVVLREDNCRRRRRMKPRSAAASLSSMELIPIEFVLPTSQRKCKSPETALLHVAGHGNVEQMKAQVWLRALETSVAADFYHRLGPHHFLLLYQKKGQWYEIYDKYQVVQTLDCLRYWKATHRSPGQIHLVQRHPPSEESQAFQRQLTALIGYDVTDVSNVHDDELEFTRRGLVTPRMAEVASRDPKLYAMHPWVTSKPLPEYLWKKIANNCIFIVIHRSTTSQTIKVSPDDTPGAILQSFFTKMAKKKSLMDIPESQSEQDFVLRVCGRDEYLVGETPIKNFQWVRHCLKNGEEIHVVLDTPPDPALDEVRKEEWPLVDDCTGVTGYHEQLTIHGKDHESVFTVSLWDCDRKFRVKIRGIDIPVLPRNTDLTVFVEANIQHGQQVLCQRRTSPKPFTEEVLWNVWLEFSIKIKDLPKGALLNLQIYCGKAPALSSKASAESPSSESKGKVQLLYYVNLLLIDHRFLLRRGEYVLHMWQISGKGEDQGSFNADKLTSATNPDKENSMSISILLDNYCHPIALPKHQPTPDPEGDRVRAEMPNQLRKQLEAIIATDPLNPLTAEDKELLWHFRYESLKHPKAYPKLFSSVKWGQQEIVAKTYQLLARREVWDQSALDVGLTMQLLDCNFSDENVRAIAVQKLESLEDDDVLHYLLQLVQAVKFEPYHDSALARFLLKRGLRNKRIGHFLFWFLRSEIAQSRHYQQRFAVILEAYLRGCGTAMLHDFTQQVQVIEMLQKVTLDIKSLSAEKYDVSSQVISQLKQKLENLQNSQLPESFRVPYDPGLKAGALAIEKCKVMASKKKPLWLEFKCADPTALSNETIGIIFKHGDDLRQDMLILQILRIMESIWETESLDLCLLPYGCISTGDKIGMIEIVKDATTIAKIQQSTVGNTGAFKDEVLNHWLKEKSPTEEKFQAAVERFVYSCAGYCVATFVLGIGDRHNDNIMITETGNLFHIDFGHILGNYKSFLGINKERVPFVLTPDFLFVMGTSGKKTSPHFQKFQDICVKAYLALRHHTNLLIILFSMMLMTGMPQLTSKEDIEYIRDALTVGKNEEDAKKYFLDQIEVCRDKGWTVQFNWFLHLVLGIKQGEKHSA

`Cc1nnc(-c2c(N)ncnc2N[C@@H](C)c2cc3cccc(Cl)c3c(=O)n2C2CC2)o1` [Ex. 4, (S)-3-(1-((6-amino-5-(5-methyl-1,3,4-oxadiazol-2-yl)pyrimidin-4-yl)amino)ethyl)-8-chloro-2-cyclopropylisoquinolin-1(2H)-one]: the figures for the IC50 at PI3K (p110δ/p85α) (h) and at PI3K (p120γ) (h) were 11 nM and 387 nM, respectively.
For the molecule `Cc1noc(-c2c(N)ncnc2N[C@@H](C)c2cc3cccc(Cl)c3c(=O)n2-c2ccccc2)n1` [Ex. 8, (S)-3-(1-((6-amino-5-(3-methyl-1,2,4-oxadiazol-5-yl)pyrimidin-4-yl)amino)ethyl)-8-chloro-2-phenylisoquinolin-1(2H)-one], the IC50 (usually the concentration that gives 50% inhibition) at PI3K (p110δ/p85α) (h) was 1 nM. In addition, in series [1], the Cl/F stood at 24.3 mL/min/kg; the F came out at 13.1%; the AUC(0-t) (in general, exposure summed from dosing to a finite time, without extrapolation to infinity) came to 711 ng·h/mL; the half-life (usually the time needed for the level to fall by half in the phase considered) is 0.65 h. Also, the Vd in series [1] came to 1.2 L/kg. Also, in series [2], the clearance (usually the volume of plasma or blood freed of the substance per unit of time) stood at 12.2 mL/min/kg, the F is reported as 52.85%, the AUC(0-t) came to 1350 ng·h/mL and the half-life is 1.7 h. Moreover, the Vd in series [2] came to 1.43 L/kg. Moreover, at PI3K (p120γ) (h), the IC50 is 74 nM.
In the case of `Cc1nnc(-c2c(N)ncnc2N[C@@H](C)c2cc3cccc(Cl)c3c(=O)n2-c2ccccc2)o1` [Ex. 9, (S)-3-(1-((6-amino-5-(5-methyl-1,3,4-oxadiazol-2-yl)pyrimidin-4-yl)amino)ethyl)-8-chloro-2-phenylisoquinolin-1(2H)-one], the 50% inhibitory concentration (IC50) on PI3K (p110δ/p85α) (h) worked out at 4 nM. Further, in series [1], the Cl/F worked out at 14.8 mL/min/kg, the F came out at 179.7%, the exposure AUC(0-t) was found to be 1120 ng·h/mL and the half-life was 1.23 h. Besides, in series [1], the Vd is 1.17 L/kg. For the same molecule, in series [2], the clearance worked out at 23.7 mL/min/kg, the F is recorded as 72.99%, the area under the curve AUC(0-t) came to 695 ng·h/mL and the half-life was 1.25 h. In addition, the Vd in series [2] was found to be 2.04 L/kg. Moreover, the concentration for half-maximal inhibition (IC50) at PI3K (p120γ) (h) came to 255 nM.
For `Cc1nnc(-c2c(N)ncnc2N[C@@H](C)c2cc3cccc(-c4cnn(C)c4)c3c(=O)n2C2CC2)o1` [Ex. 25, (S)-3-(1-((6-amino-5-(5-methyl-1,3,4-oxadiazol-2-yl)pyrimidin-4-yl)amino)ethyl)-2-cyclopropyl-8-(1-methyl-1H-pyrazol-4-yl)isoquinolin-1 (2H)-one], the 50% inhibitory concentration (IC50) stood at 13 nM on PI3K (p110δ/p85α) (h) and 325 nM at PI3K (p120γ) (h).
In the same order, the values of `Cc1noc(-c2c(N)ncnc2N[C@@H](C)c2cc3cccc(-c4cnn(C)c4)c3c(=O)n2C2CC2)n1` [Ex. 26, (S)-3-(1-((6-amino-5-(3-methyl-1,2,4-oxadiazol-5-yl)pyrimidin-4-yl)amino)ethyl)-2-cyclopropyl-8-(1-methyl-1H-pyrazol-4-yl)isoquinolin-1 (2H)-one] are 4 nM and 65 nM.
